Target: T1, protein tyrosine phosphatase 1B (PTP1B) (Homo sapiens, UniProt P18031)
T1 construct: gene PTPN1
T1 sequence (P18031 1-435): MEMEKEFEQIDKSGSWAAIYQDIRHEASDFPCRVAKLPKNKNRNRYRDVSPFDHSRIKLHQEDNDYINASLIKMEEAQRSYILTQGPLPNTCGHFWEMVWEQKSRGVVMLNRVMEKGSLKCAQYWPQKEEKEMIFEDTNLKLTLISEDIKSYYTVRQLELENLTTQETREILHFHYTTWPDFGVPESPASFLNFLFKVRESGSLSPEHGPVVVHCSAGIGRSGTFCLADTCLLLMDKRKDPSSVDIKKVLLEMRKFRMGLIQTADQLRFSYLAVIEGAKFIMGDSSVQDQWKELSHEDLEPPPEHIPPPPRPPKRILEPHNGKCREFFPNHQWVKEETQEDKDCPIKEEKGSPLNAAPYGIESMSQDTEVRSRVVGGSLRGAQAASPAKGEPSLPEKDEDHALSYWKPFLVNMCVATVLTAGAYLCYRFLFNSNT
Assay: p-NPP hydrolysis assay with recombinant enzyme; Lineweaver–Burk kinetics
Type: biochemical

IC50: 22.8 ± 1.1 µM
SMILES: CC(C)C[C@@H]1C[C@H](C)[C@@H]2CC[C@H](C)c3ccc(CO)c1c32 [compound 1, acrepseudoterin]
